One experiment has as its target T1, F1F0-ATPase (Bos taurus, UniProt P13621).
T1 construct: from tissue
In words: Inhibition of F1F0-ATPase activity in synthesizing ATP. Type of experiment: biochemical. The settings on record: inhibition of ATP synthesis by F1F0-ATPase; read-out: ATP Syn IC50.

Another experiment deals with Ramos cells. In words: Cytotoxicity in Ramos cells. The format is cell-based. The settings on record: cytotoxicity in Ramos cells, read-out: Ramos Cell EC50.

Where two headings read alike, the source gives them in different places.

In general, IC50 refers to the midpoint of a concentration-inhibition curve. For orientation: EC50 means the concentration that produces a half-maximal response.

Take `COc1ccc(C(=O)/N=C(/NCC(C)(C)C)Nc2cc(-c3ccc(F)cc3)[nH]n2)cc1` [Compound A-515]: the 50% inhibitory concentration (IC50) on F1F0-ATPase is below 10 µM. The EC50 with Ramos cells was below 10 µM.
`COc1cccc(C(=O)N=C(NCC(C)(C)C)Nc2cc(-c3ccc(F)cc3)n[nH]2)c1` [Compound A-516]: at F1F0-ATPase, the half-inhibitory concentration (IC50) is below 10 µM. The EC50 with Ramos cells (Homo sapiens) is below 10 µM.
Consider `CC(C)(C)CN/C(=N/C(=O)c1cccc(C#N)c1)Nc1cc(-c2ccc(F)cc2)[nH]n1` [Compound A-517], for which the IC50 on F1F0-ATPase is below 10 µM. For the same compound, the EC50 in the experiment with Ramos cells was below 10 µM.
With `COc1ccc(C(=O)N=C(Nc2cc(-c3ccc(F)cc3)n[nH]2)NC2CCCC2)cc1` [Compound A-518], at F1F0-ATPase, the IC50 is below 10 µM. In addition, in the experiment on Ramos cells (Homo sapiens), the EC50 is below 10 µM.
Take `COc1cccc(C(=O)N=C(Nc2cc(-c3ccc(F)cc3)n[nH]2)NC2CCCC2)c1` [Compound A-519]: on F1F0-ATPase, the IC50 was below 10 µM. For the same compound, in the experiment with Ramos cells (Homo sapiens), the EC50 is below 10 µM.
As for `N#Cc1cccc(C(=O)/N=C(\Nc2cc(-c3ccc(F)cc3)[nH]n2)NC2CCCC2)c1` [Compound A-520], on F1F0-ATPase, the half-inhibitory concentration (IC50) is below 10 µM. The EC50 in the experiment on Ramos cells was below 10 µM.
On to `O=C(N=C(Nc1cc(-c2ccc(F)cc2)n[nH]1)NC1CCCC1)c1ccc(F)cc1` [Compound A-521], for which the 50% inhibitory concentration (IC50) at F1F0-ATPase is below 10 µM. The EC50 in the experiment with Ramos cells (Homo sapiens) is below 10 µM.
Consider `CC(C)(C)CNC(=NC(=O)c1ccc(F)c(F)c1)Nc1cc(-c2ccc(F)cc2)n[nH]1` [Compound A-522], for which, on F1F0-ATPase, the IC50 was below 10 µM. Moreover, in the experiment with Ramos cells (Homo sapiens), the concentration giving a half-maximal response (EC50) is below 10 µM.
Consider `COc1ccc(C(=O)/N=C(\Nc2cc(-c3ccc(F)cc3)[nH]n2)NC(C)C)cc1` [Compound A-523], for which the IC50 at F1F0-ATPase is below 10 µM. For the same compound, in the experiment on Ramos cells, the EC50 was above 10 µM.
On the same counts, the results for `COc1cccc(C(=O)/N=C(\Nc2cc(-c3ccc(F)cc3)[nH]n2)NC(C)C)c1` [Compound A-524] are below 10 µM and below 10 µM.
Take `CC(C)(C)NC(=NC(=O)c1cccc(O)c1)Nc1cc(-c2ccc(F)cc2)n[nH]1` [Compound A-525]: the IC50 on F1F0-ATPase was below 10 µM. Also, the EC50 in the experiment with Ramos cells (Homo sapiens) was below 10 µM.
Consider `COC[C@H](C)N/C(=N/C(=O)c1cccc(C#N)c1)Nc1cc(-c2ccc(F)cc2)[nH]n1` [Compound A-526], for which the IC50 at F1F0-ATPase is below 10 µM. Besides, the EC50 with Ramos cells is above 10 µM.
`CC(C)(C)NC(=NC(=O)c1cccc(C#N)c1)Nc1cc(-c2ccc(F)cc2)n[nH]1` [Compound A-527]: the IC50 at F1F0-ATPase is below 10 µM. Also, in the experiment on Ramos cells (Homo sapiens), the EC50 is below 10 µM.
`COCC(C)NC(=NC(=O)c1ccc(C#N)cc1)Nc1cc(-c2ccc(F)cc2)n[nH]1` (stereo not drawn) [Compound A-528]: on F1F0-ATPase, the IC50 was below 10 µM. Further, in the experiment on Ramos cells (Homo sapiens), the EC50 is above 10 µM.
With `CC(C)(C)N/C(=N/C(=O)c1ccc(C#N)cc1)Nc1cc(-c2ccc(F)cc2)[nH]n1` [Compound A-529], at F1F0-ATPase, the IC50 is below 10 µM. The EC50 in the experiment with Ramos cells is above 10 µM.
As to `CC(C)(CO)N/C(=N/C(=O)c1ccc(F)cc1)Nc1cc(C(F)(F)F)[nH]n1` [Compound A-531], on F1F0-ATPase, the IC50 was below 10 µM. In addition, the EC50 with Ramos cells is above 10 µM.
In the case of `O=C(N=C(Nc1cc(C(F)(F)F)n[nH]1)N1CCCC1)c1ccc(C(F)(F)F)cc1` [Compound A-532], the IC50 on F1F0-ATPase is below 10 µM. For the same compound, in the experiment with Ramos cells (Homo sapiens), the EC50 is above 10 µM.
On the same counts, the results for `COC[C@H](C)NC(=NC(=O)c1ccc(F)cc1)Nc1cc(-c2ccc(F)cc2)n[nH]1` [Compound A-533] are below 10 µM and below 10 µM.
Turning to `COC[C@H](C)N/C(=N/C(=O)c1ccc(C)cc1)Nc1cc(C(F)(F)F)[nH]n1` [Compound A-534], the IC50 at F1F0-ATPase was below 10 µM. Further, the 50% effective concentration (EC50) in the experiment on Ramos cells was below 10 µM.
Consider `COC[C@H](C)N/C(=N/C(=O)c1ccc(C)c(F)c1)Nc1cc(C(F)(F)F)[nH]n1` [Compound A-535], for which the IC50 at F1F0-ATPase is below 10 µM. Besides, the EC50 in the experiment on Ramos cells is below 10 µM.
In the case of `COC[C@H](C)N/C(=N/C(=O)c1ccc(OC)cc1)Nc1cc(C(F)(F)F)[nH]n1` [Compound A-536], the 50% inhibitory concentration (IC50) on F1F0-ATPase was below 10 µM. Besides, the EC50 in the experiment with Ramos cells is below 10 µM.
Take `COCC(C)NC(=NC(=O)c1cccc(OC)c1)Nc1cc(C(F)(F)F)n[nH]1` (stereo not drawn) [Compound A-537]: on F1F0-ATPase, the IC50 was below 10 µM. In the experiment on Ramos cells (Homo sapiens), the concentration giving a half-maximal response (EC50) was below 10 µM.
In the case of `CC(C)(CO)N/C(=N/C(=O)c1ccc(F)cc1)Nc1cc(-c2ccc(F)cc2)n[nH]1` [Compound A-538], the IC50 at F1F0-ATPase was below 10 µM. Besides, the EC50 in the experiment on Ramos cells (Homo sapiens) was above 10 µM.
Consider `COc1ccc(C(=O)/N=C(\Nc2cc(-c3ccc(F)cc3)[nH]n2)NC(C)(C)C)cc1` [Compound A-539], for which the IC50 on F1F0-ATPase is below 10 µM. Also, the EC50 in the experiment with Ramos cells was below 10 µM.
`COc1cccc(C(=O)N=C(Nc2cc(-c3ccc(F)cc3)n[nH]2)NC(C)(C)C)c1` [Compound A-540]: the IC50 on F1F0-ATPase is below 10 µM. Besides, in the experiment with Ramos cells (Homo sapiens), the EC50 was below 10 µM.
Consider `COc1ccc(C(=O)N=C(NCc2ccc(F)cc2Cl)Nc2cc(C(F)(F)F)n[nH]2)cc1` [Compound A-541], for which the IC50 on F1F0-ATPase is below 10 µM. The EC50 in the experiment with Ramos cells (Homo sapiens) was below 10 µM.
With `COc1cccc(C(=O)N=C(NCc2ccc(F)cc2Cl)Nc2cc(C(F)(F)F)n[nH]2)c1` [Compound A-542], the IC50 at F1F0-ATPase is below 10 µM. Moreover, the EC50 in the experiment on Ramos cells (Homo sapiens) is below 10 µM.
`COc1ccccc1C(=O)N=C(NCc1ccc(F)cc1Cl)Nc1cc(C(F)(F)F)n[nH]1` [Compound A-543]: the IC50 at F1F0-ATPase was below 10 µM. Moreover, in the experiment with Ramos cells (Homo sapiens), the EC50 is below 10 µM.
On to `CC(C)(C)NC(=NC(=O)c1ccccc1)Nc1cc(C(F)(F)F)n[nH]1` [Compound A-544], for which, at F1F0-ATPase, the IC50 was below 10 µM. The EC50 with Ramos cells (Homo sapiens) was below 10 µM.
As for `O=C(/N=C(\Nc1cc(C(F)(F)F)[nH]n1)NC1CCCC1)c1ccccc1` [Compound A-545], the IC50 at F1F0-ATPase was below 10 µM. Further, in the experiment on Ramos cells, the EC50 was below 10 µM.
Take `Cc1ccc(C(=O)/N=C(\Nc2cc(C(F)(F)F)[nH]n2)NC2CCCC2)cc1F` [Compound A-546]: the IC50 on F1F0-ATPase was below 10 µM. Also, the EC50 with Ramos cells is below 10 µM.
For `Cc1ccc(C(=O)/N=C(\Nc2cc(C(F)(F)F)[nH]n2)NC2CCCC2)cc1` [Compound A-547], on F1F0-ATPase, the 50% inhibitory concentration (IC50) was below 10 µM. Moreover, in the experiment on Ramos cells, the EC50 was below 10 µM.
In the case of `O=C(N=C(Nc1cc(C(F)(F)F)n[nH]1)NC1CCCC1)c1ccc(F)cc1` [Compound A-548], the concentration for half-maximal inhibition (IC50) at F1F0-ATPase is below 10 µM. In addition, the EC50 in the experiment with Ramos cells (Homo sapiens) is below 10 µM.
In the case of `Cc1ccc(C(=O)N=C(NCc2ccc(F)cc2Cl)Nc2cc(C(F)(F)F)n[nH]2)cc1` [Compound A-549], the IC50 on F1F0-ATPase is below 10 µM. Further, the EC50 in the experiment with Ramos cells (Homo sapiens) was below 10 µM.
Turning to `Cc1ccc(C(=O)/N=C(\Nc2cc(-c3ccc(F)cc3)[nH]n2)NC(C)(C)C)cc1` [Compound A-550], the IC50 on F1F0-ATPase is below 10 µM. For the same compound, in the experiment on Ramos cells, the EC50 was below 10 µM.
In the case of `Cc1cccc(C(=O)/N=C(/NCc2ccc(F)cc2Cl)Nc2cc(C(F)(F)F)[nH]n2)c1` [Compound A-551], the IC50 on F1F0-ATPase is below 10 µM. In the experiment with Ramos cells, the EC50 is below 10 µM.
As to `Cc1cccc(C(=O)N=C(Nc2cc(-c3ccc(F)cc3)n[nH]2)NC(C)(C)C)c1` [Compound A-552], at F1F0-ATPase, the IC50 is below 10 µM. The EC50 in the experiment with Ramos cells (Homo sapiens) is below 10 µM.
As for `Cc1ccc(C(=O)N=C(NCc2ccc(F)cc2Cl)Nc2cc(C(F)(F)F)n[nH]2)cc1F` [Compound A-553], at F1F0-ATPase, the IC50 was below 10 µM. Besides, the 50% effective concentration (EC50) with Ramos cells (Homo sapiens) was below 10 µM.
In the case of `Cc1ccc(C(=O)/N=C(\Nc2cc(-c3ccc(F)cc3)[nH]n2)NC(C)(C)C)cc1F` [Compound A-554], the concentration for half-maximal inhibition (IC50) at F1F0-ATPase was below 10 µM. Besides, in the experiment on Ramos cells, the EC50 is below 10 µM.

Source of the values: US9139532B2, “Pyrazolyl guanidine F1F0-atpase inhibitors and therapeutic uses thereof” (Lycera Corporation, priority 2010, dated 2015).
